From PubChem BioAssay AID248 (DTP/NCI, 2004)
Several values for one entry are separate records, joined by “and”; a condition that tells them apart may be missing. Equal entries are not always repeated. Inconclusive results and toxic doses are left out. Cut-off read from the data, not from the text of the source: active = T/C of 150% or more; inactive = T/C below 125%.

Tested on: L1210 leukemia ip in BDF1 mice, survival T/C
Experiment: NCI In Vivo Anticancer Drug Screen. Data for tumor model L1210 Leukemia (intraperitoneal) in B6D2F1 (BDF1) mice
Settings: endpoint: mean survival time, higher = longer survival
Method in brief: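 In this screen, tumor-bearing mice given compound are compared to those given vehicle, and their survival values are reported as a treated-to-control quotient.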

[1] = dose: 100.0 mg/kg/injection, schedule: Q01DX001 (ip), vehicle: saline
[2] = dose: 200.0 mg/kg/injection, schedule: Q01DX001 (ip), vehicle: saline
[3] = dose: 400.0 mg/kg/injection, schedule: Q01DX001 (ip), vehicle: saline
[4] = dose: 100.0 mg/kg/injection, schedule: Q01DX009 (ip), vehicle: Klucel (hydroxypropylcellulose) (HPC)
[5] = dose: 100.0 mg/kg/injection, schedule: Q04DX003 (ip), vehicle: Klucel (hydroxypropylcellulose) (HPC)
[6] = dose: 200.0 mg/kg/injection, schedule: Q01DX009 (ip), vehicle: Klucel (hydroxypropylcellulose) (HPC)
[7] = dose: 200.0 mg/kg/injection, schedule: Q04DX003 (ip), vehicle: Klucel (hydroxypropylcellulose) (HPC)
[8] = dose: 400.0 mg/kg/injection, schedule: Q01DX009 (ip), vehicle: Klucel (hydroxypropylcellulose) (HPC)
[9] = dose: 400.0 mg/kg/injection, schedule: Q04DX003 (ip), vehicle: Klucel (hydroxypropylcellulose) (HPC)
[10] = dose: 100.0 mg/kg/injection, schedule: Q04DX003 (ip), vehicle: saline
[11] = dose: 200.0 mg/kg/injection, schedule: Q04DX003 (ip), vehicle: saline
[12] = dose: 400.0 mg/kg/injection, schedule: Q04DX003 (ip), vehicle: saline
[13] = dose: 100.0 mg/kg/injection, schedule: Q01DX009 (ip), vehicle: saline
[14] = dose: 200.0 mg/kg/injection, schedule: Q01DX009 (ip), vehicle: saline
[15] = dose: 400.0 mg/kg/injection, schedule: Q01DX009 (ip), vehicle: saline
[16] = dose: 25.0 mg/kg/injection, schedule: Q01DX009 (ip), vehicle: Klucel (hydroxypropylcellulose) (HPC)
[17] = dose: 12.5 mg/kg/injection, schedule: Q04DX002 (ip), vehicle: Klucel (hydroxypropylcellulose) (HPC)
[18] = dose: 25.0 mg/kg/injection, schedule: Q04DX002 (ip), vehicle: Klucel (hydroxypropylcellulose) (HPC)

Measured: T/C

COc1ccc(CN2CCCN(Cc3ccc(OC)cc3OC)C2c2ccccc2O)c(OC)c1
inactive: dose: 50.0 mg/kg/injection, schedule: Q01DX001 (ip), vehicle: saline 97 % of control | [1] 92 % of control | [2] 90 % of control | [3] 101 % of control

Nc1ccccc1-c1ccccc1N
inactive: dose: 25.0 mg/kg/injection, schedule: Q04DX002 (ip), vehicle: saline 100 % of control | dose: 50.0 mg/kg/injection, schedule: Q04DX002 (ip), vehicle: saline 98 % of control | [4] 96 % of control | dose: 100.0 mg/kg/injection, schedule: Q04DX002 (ip), vehicle: saline 114 % of control | [5] 94 % of control | [6] 102 % of control | [7] 91 % of control | [8] 93 % of control | [9] 104 % of control

c1ccc2c(c1)ccc1c[s+]ccc12
inactive: dose: 100.0 mg/kg/injection, schedule: Q04DX003 (ip), vehicle: acetone 103 % of control | dose: 200.0 mg/kg/injection, schedule: Q04DX003 (ip), vehicle: acetone 103 % of control

CCC/C=C/CCN1CC1
inactive: dose: 20.0 mg/kg/injection, schedule: Q01DX001 (ip), vehicle: saline 97 % of control | dose: 40.0 mg/kg/injection, schedule: Q01DX001 (ip), vehicle: saline 97 % of control | [1] 86 % of control

O=C(O)C1C2C=CC(CC2)C1C(=O)O (configuration not stated)
inactive: [10] 96 % of control | [11] 90 % of control | [12] 94 % of control

[Cl][Al]([Cl])[Cl]
inactive: dose: 6.25 mg/kg/injection, schedule: Q01DX009 (ip), vehicle: saline 102 % of control | dose: 12.5 mg/kg/injection, schedule: Q01DX009 (ip), vehicle: saline 93 % of control | dose: 50.0 mg/kg/injection, schedule: Q04DX003 (ip), vehicle: saline 91 % of control | [1] 97 % of control and 89 % of control and 96 % of control | [13] 87 % of control | [10] 100 % of control and 87 % of control | [2] 98 % of control and 94 % of control | [14] 96 % of control | [11] 96 % of control and 101 % of control and 90 % of control | [3] 100 % of control and 114 % of control | [15] 91 % of control

O=C=Nc1ccc(CCc2ccc(N=C=O)cc2)cc1
inactive: [13] 88 % of control | [10] 93 % of control | [14] 87 % of control | [11] 102 % of control | [12] 106 % of control

O=C(SCC(NSc1ccccc1[N+](=O)[O-])C(=O)O)c1ccccc1 (configuration not stated)
inactive: dose: 12.0 mg/kg/injection, schedule: Q04DX003 (ip), vehicle: Klucel (hydroxypropylcellulose) (HPC) 90 % of control | [16] 95 % of control | dose: 25.0 mg/kg/injection, schedule: Q04DX003 (ip), vehicle: Klucel (hydroxypropylcellulose) (HPC) 95 % of control | dose: 50.0 mg/kg/injection, schedule: Q01DX009 (ip), vehicle: Klucel (hydroxypropylcellulose) (HPC) 98 % of control | dose: 50.0 mg/kg/injection, schedule: Q04DX003 (ip), vehicle: Klucel (hydroxypropylcellulose) (HPC) 95 % of control | [4] 98 % of control

CN1CCCCC(c2ccccc2)(c2ccccc2)C1=N
inactive: dose: 37.5 mg/kg/injection, schedule: Q01DX001 (ip), vehicle: saline 100 % of control

COC1=CC23CCNC(Cc4ccc(OC)c(O)c42)C3=CC1 (configuration not stated)
inactive: dose: 10.0 mg/kg/injection, schedule: Q01DX001 (ip), vehicle: saline 101 % of control

CCC[CH2][Sn]1([CH2]CCC)[O]OC(c2ccc(C)cc2)[O]1 (configuration not stated)
inactive: dose: 12.5 mg/kg/injection, schedule: Q01DX009 (ip), vehicle: Klucel (hydroxypropylcellulose) (HPC) 101 % of control | [17] 94 % of control | [16] 119 % of control | [18] 86 % of control

CCNCCCOCC
inactive: dose: 50.0 mg/kg/injection, schedule: Q01DX009 (ip), vehicle: saline 91 % of control | [10] 103 % of control | [11] 95 % of control

COC(=O)OCCOC(=O)OC
inactive: [13] 105 % of control | [10] 100 % of control | [14] 101 % of control | [11] 102 % of control | [15] 100 % of control | [12] 103 % of control

COc1ccc(CNCCN2CC2)cc1
inactive: dose: 10.0 mg/kg/injection, schedule: Q01DX009 (ip), vehicle: Klucel (hydroxypropylcellulose) (HPC) 108 % of control | dose: 20.0 mg/kg/injection, schedule: Q01DX009 (ip), vehicle: Klucel (hydroxypropylcellulose) (HPC) 106 % of control | dose: 40.0 mg/kg/injection, schedule: Q01DX009 (ip), vehicle: Klucel (hydroxypropylcellulose) (HPC) 98 % of control

OC(Cc1ccccc1)(c1ccccc1)c1cccc2ccccc12 (configuration not stated)
inactive: [4] 90 % of control | [5] 100 % of control | [6] 95 % of control | [7] 109 % of control | [8] 92 % of control | [9] 97 % of control

Cc1c2ccncc2c(C)c2c1[nH]c1ccc(Cl)cc12
inactive: dose: 37.5 mg/kg/injection, schedule: Q01DX001 (oral), vehicle: saline with Tween-80 102 % of control | dose: 50.0 mg/kg/injection, schedule: Q01DX009 (ip), vehicle: saline with Tween-80 96 % of control | dose: 50.0 mg/kg/injection, schedule: Q04DX003 (ip), vehicle: saline with Tween-80 104 % of control | dose: 75.0 mg/kg/injection, schedule: Q01DX001 (oral), vehicle: saline with Tween-80 103 % of control | dose: 100.0 mg/kg/injection, schedule: Q01DX009 (ip), vehicle: saline with Tween-80 94 % of control | dose: 100.0 mg/kg/injection, schedule: Q04DX003 (ip), vehicle: saline with Tween-80 98 % of control | dose: 150.0 mg/kg/injection, schedule: Q01DX001 (oral), vehicle: saline with Tween-80 97 % of control | dose: 200.0 mg/kg/injection, schedule: Q01DX001 (oral), vehicle: saline with Tween-80 108 % of control | dose: 200.0 mg/kg/injection, schedule: Q01DX009 (ip), vehicle: saline with Tween-80 92 % of control | dose: 200.0 mg/kg/injection, schedule: Q04DX003 (ip), vehicle: saline with Tween-80 90 % of control | dose: 400.0 mg/kg/injection, schedule: Q01DX001 (oral), vehicle: saline with Tween-80 107 % of control | dose: 800.0 mg/kg/injection, schedule: Q01DX001 (oral), vehicle: saline with Tween-80 113 % of control

C=CCSc1nc2c(=O)[nH]c(N)nc2n1C1OC(CO)C(O)C1O (configuration not stated)
inactive: dose: 100.0 mg/kg/injection, schedule: Q01DX005 (ip), vehicle: saline 100 % of control | dose: 200.0 mg/kg/injection, schedule: Q01DX005 (ip), vehicle: saline 103 % of control

O=C1C=CC(=O)N1C12CC3CC(CC(C3)C1)C2
inactive: [17] 98 % of control | [18] 105 % of control | dose: 50.0 mg/kg/injection, schedule: Q04DX002 (ip), vehicle: Klucel (hydroxypropylcellulose) (HPC) 94 % of control

COc1cc(C)ccc1C(=O)CCCC(=O)O
inactive: dose: 100.0 mg/kg/injection, schedule: Q01DX001 (ip), vehicle: Klucel (hydroxypropylcellulose) (HPC) 106 % of control | [5] 105 % of control | dose: 200.0 mg/kg/injection, schedule: Q01DX001 (ip), vehicle: Klucel (hydroxypropylcellulose) (HPC) 98 % of control | [6] 97 % of control | [7] 102 % of control | dose: 400.0 mg/kg/injection, schedule: Q01DX001 (ip), vehicle: Klucel (hydroxypropylcellulose) (HPC) 98 % of control | [8] 98 % of control | [9] 103 % of control
